Reference: patent publication US20230245787A1, “METHODS FOR PREDICTING SYNERGISTIC DRUG COMBINATION” (GenomiCare Biotechnology (Shanghai) Co., Ltd, priority 2020, published 2023)

Test system: Hepatocellular Carcinoma (HCC) and Intrahepatic Cholangiocarcinoma (ICC)
Assay: Exhaustive Cox proportional hazards (ECPH) model on real-world survival data of drug combination groups
Format: in vivo, human
Details: Cox PH
[1] = Regorafenib x Lenvatinib groups (Contingency Table B)
[2] = Sorafenib x Lenvatinib groups (Contingency Table A)

Text: Then, a novel exhaustive Cox proportional hazards model (ECPH) model is used to evaluate all possible drug combinations with respect to their efficacy in prolonging patients' lives. In terms of efficacy, there can be three types of drug interaction: additive, synergistic, and antagonistic.
The approach used in the present disclosure further extends the CPH model. In an example process, drugs used for fewer than one treatment cycle or the number of patients in any variables less than 15 were removed. Then, a 2×2 contingency table is set up, in which rows are defined by every unique genomic or clinical variable, and the columns are defined by drug variable (See Table 3 as an illustration). Then the CPH model (as described in “The Robust Inference for the Cox Proportional Hazards Model”, D. Y. Lin &L. J. Wei, Journal of the Am. Stat. Assoc., pp. 1074-1078, 1989) is used to calculate independent risk factors, cumulative hazard-ratios, and p-values for each drug combination table.
Additive combination definition: The HR score of the drug A+ plus factor B+ group is between the other two treatment groups (A+B− and A−B+). The P-value of the drug A+ plus factor B+ group is not statistically significant compared with the other two treatment groups (A+B− and A−B+).
Synergistic combination definition: The HR score of the drug A+ plus factor B+ group is smaller than the other two treatment groups (A+B− and A−B+). […] The drug A+ plus factor B+ group is the statistically independent variable of the other two treatment groups (A+B− and A−B+).
In this example, data were collected and analyzed in the following steps:
(2) Real-world clinical electronic health records (EHRs) collection, clinical data entry and l long-term follow-up, according to the flowchart shown in FIG. 4.
(3) Comprehensive genomic data is matched with real-world treatment patterns and clinical outcomes feature database and analysis workflow, as shown in FIG. 5.
(4) A large one-hot encoding matrix(˜10,000*10,000) of comprehensive genomic and clinical factors. Based on the one-hot encoding matrix, the combined effects of all factors such as: age, gender, gene mutation, and drug treatment can be obtained.
(5) Applying exhaustive Cox proportional hazards model (ECPH) model
a. Patients are divided into four categories based on the combined use of the two drugs. For an example: Patients treated with Lenvatinib and without Sorafenib were defined as the Lenvatinib treatment group. Patients treated with Sorafenib and without Lenvatinib were defined as the Sorafenib treatment group. Patients treated with Sorafenib and Lenvatinib were defined as the Sorafenib-Lenvatinib treatment group. Patients treated without Sorafenib and Lenvatinib were defined as Sorafenib-Lenvatinib free treatment group.
b. 2×2 contingency tables were calculated for all possible drug combinations pairs: Millions of possible combinations of Lenvatinib.
c. Cox PH model (The Robust Inference for the Cox Proportional Hazards Model D. Y. Lin &L. J. Wei Pages 1074-1078) was used to calculate independent risk factors, cumulative hazard-ratios, and p-values for each drug combination table. […] It can be estimated as follow: h(t)=h0(t)×exp(b1x1+b2x2+ . . . +bpxp) where, • t represents the survival time. • h(t) is the hazard function determined by a set of p covariates (x1, x2, . . . , xp) • the coefficients (b1, b2, . . . , bp) measure the impact (i.e., the effect size) of covariates. • the term h0 is referred to the baseline hazard.

Row | SMILES | HR (hazard ratio) [1] | HR (hazard ratio) [2] | HR (hazard ratio) (PD-1/PD-L1 x Lenvatinib groups (Contingency Table C), Chinese HCC and ICC patients)
1 | CNC(=O)c1cc(Oc2ccc(NC(=O)Nc3ccc(Cl)c(C(F)(F)F)c3)c(F)c2)ccn1 [Regorafenib] | 0.99 | – | –
2 | CNC(=O)c1cc(Oc2ccc(NC(=O)Nc3ccc(Cl)c(C(F)(F)F)c3)cc2)ccn1 [Sorafenib] | – | 0.76 | –
3 | COc1cc2nccc(Oc3ccc(NC(=O)NC4CC4)c(Cl)c3)c2cc1C(N)=O [Lenvatinib] | 0.74 | 0.56 | 1.00
